Results on 41 compounds are retold here after ChEMBL document CHEMBL3039007, “Structure-based identification of OATP1B1/3 inhibitors” (Mol Pharmacol, 2013).

In general, residual activity refers to the signal under treatment as a percentage of the control signal.

Series [1] concerns the target T1, Solute carrier organic anion transporter family member 1B1 (Homo sapiens, UniProt Q9Y6L6).
T1 sequence (Q9Y6L6 whole entry): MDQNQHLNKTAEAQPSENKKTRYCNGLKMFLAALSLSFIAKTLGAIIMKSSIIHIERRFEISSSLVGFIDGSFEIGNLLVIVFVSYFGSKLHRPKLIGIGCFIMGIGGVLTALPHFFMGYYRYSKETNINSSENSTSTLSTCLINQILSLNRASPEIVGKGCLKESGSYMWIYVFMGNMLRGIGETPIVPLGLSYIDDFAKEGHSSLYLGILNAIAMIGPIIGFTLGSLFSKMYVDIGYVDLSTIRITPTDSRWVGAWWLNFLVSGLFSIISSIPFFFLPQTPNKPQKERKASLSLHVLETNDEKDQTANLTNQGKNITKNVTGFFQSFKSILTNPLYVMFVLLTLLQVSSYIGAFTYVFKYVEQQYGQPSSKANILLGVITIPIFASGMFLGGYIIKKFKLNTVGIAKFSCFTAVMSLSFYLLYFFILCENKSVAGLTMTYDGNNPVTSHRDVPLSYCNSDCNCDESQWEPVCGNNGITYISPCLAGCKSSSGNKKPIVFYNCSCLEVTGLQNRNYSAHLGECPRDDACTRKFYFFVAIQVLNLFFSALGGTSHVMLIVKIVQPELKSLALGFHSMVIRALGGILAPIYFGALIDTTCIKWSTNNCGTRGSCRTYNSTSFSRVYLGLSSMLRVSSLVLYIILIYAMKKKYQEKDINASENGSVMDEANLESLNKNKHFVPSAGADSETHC
To be noted: chinese hamster, cho, 10 µM.

The target in series [2] is T2, Solute carrier organic anion transporter family member 1B3 (Homo sapiens, UniProt Q9NPD5).
T2 sequence (Q9NPD5 whole entry): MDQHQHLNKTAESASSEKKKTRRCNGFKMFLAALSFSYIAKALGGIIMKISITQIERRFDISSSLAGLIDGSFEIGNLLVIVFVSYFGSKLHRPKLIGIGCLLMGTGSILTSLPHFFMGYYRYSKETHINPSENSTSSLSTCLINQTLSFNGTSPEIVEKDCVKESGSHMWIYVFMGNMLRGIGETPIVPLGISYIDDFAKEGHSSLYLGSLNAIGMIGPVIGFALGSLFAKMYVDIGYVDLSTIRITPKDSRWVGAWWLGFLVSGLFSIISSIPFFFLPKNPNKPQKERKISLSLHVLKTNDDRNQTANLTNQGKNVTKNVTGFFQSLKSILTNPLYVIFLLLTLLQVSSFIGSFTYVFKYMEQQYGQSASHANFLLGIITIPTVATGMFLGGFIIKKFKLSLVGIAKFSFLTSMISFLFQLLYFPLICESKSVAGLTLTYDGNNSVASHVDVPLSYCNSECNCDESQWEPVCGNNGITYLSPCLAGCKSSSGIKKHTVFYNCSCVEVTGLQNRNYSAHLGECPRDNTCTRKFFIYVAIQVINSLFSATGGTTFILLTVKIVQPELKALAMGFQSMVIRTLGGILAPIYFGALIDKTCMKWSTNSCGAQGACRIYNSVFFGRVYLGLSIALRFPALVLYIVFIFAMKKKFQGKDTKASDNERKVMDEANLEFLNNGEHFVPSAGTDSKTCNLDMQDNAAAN
To be noted: chinese hamster, cho, 10 µM.

Structures are written as SMILES.

Turning to `COc1c(O)cc2oc3cc(O)c(CC=C(C)C)c(O)c3c(=O)c2c1CC=C(C)C` [MANGOSTIN], the residual activity in series [1] was found to be 150.2%; in series [2], 110.4%.

`CC1=C(/C=C/C(C)=C/C=C/C(C)=C/C=C/C=C(C)/C=C/C=C(C)/C=C/C2=C(C)C(=O)[C@@H](O)CC2(C)C)C(C)(C)C[C@H](O)C1=O` [ASTAXANTHIN]: the residual activity in series [1] was 95.25%; in series [2], 87.19%.

For the compound `CC1=CCCC2C1(C)CCC(C)C2(C)CC/C(C)=C/Cn1c[n+](C)c2c(N)ncnc21` (configuration not stated) [AGELASINE (stereochemistry of diterpene unknown)], the residual activity is 56.98% in series [1] and 93.91% in series [2].

Take `O=C1c2ccccc2C(=O)c2c(O)c(O)cc(O)c21` [PURPURIN]: the residual activity was 100.1% in series [1] and 98.68% in series [2].

In the case of `CO[C@H]1/C=C/O[C@@]2(C)Oc3c(C)c(O)c4c(O)c(c5c(nc6cc(C)ccn65)c4c3C2=O)NC(=O)/C(C)=C\C=C\[C@H](C)[C@H](O)[C@@H](C)[C@@H](O)[C@@H](C)[C@H](OC(C)=O)[C@@H]1C` [RIFAXIMIN], the residual activity came to 63.34% in series [1] and 81.07% in series [2].

Turning to `C/C=C/c1ccc(OC)cc1` [ANETHOLE], the residual activity in series [1] was determined as 89.5%; in series [2] it was 124.1%.

With `CCn1cc(C(=O)O)c(=O)c2cnc(N3CCCC3)nc21` [PIROMIDIC ACID], the residual activity stood at 79.57% in series [1] and 101% in series [2].

As to `O=c1ccc2ccc(O)cc2o1` [UMBELLIFERONE], the figures for the residual activity in series [1] and in series [2] were 26.71% and 76.49%, respectively.

Turning to `Cl.N=C(N)NC(=N)Nc1ccccc1` [1-PHENYLBIGUANIDE HYDROCHLORIDE], the residual activity in series [1] stood at 80.12%; in series [2], 94.41%.

As for `C=C(C)[C@H]1COc2cc3oc(=O)ccc3cc2O1` [OBLIQUIN], the figures for the residual activity in series [1] and in series [2] were 112.3% and 103.6%, respectively.

`CC(C)(O)[C@@H]1[C@H]2OC(=O)[C@@H]1[C@]1(O)C[C@H]3O[C@]34C(=O)O[C@H]2[C@]14C` [PICROTIN]: the residual activity is 88.44% in series [1] and 89.14% in series [2].

With `Cc1nnc(SCC2=C(C(=O)[O-])N3C(=O)[C@@H](NC(=O)Cn4cnnn4)[C@H]3SC2)s1.[Na+]` [CEFAZOLIN SODIUM], the residual activity in series [1] is listed as 84.25%; in series [2], 95.92%.

As to `Cc1cc(O)ccc1Cl` [CHLOROCRESOL], the results for the residual activity in series [1] and in series [2] were 119.6% and 91.23%, respectively.

For `CC(=O)O[C@@H]1C[C@H]2C(C)(C)C(=O)C=C[C@]2(C)[C@H]2CC[C@@]3(C)[C@H](c4ccoc4)OC(=O)[C@H]4O[C@]43[C@@]21C` [GEDUNIN], the residual activity in series [1] is on record as 65.45%; in series [2], 105.4%.

`C[C@@](Cc1ccc(O)c(O)c1)(NN)C(=O)O.O` [CARBIDOPA]: the residual activity worked out at 134.5% in series [1] and 113.1% in series [2].

`CC(=O)OCC(=O)[C@@]1(O)[C@H](OC(C)=O)C[C@H]2[C@@H]3CCC4=CC(=O)C=C[C@]4(C)[C@@]3(F)[C@@H](O)C[C@@]21C` [TRIAMCINOLONE DIACETATE]: the residual activity in series [1] was found to be 98.08%; in series [2], 104.9%.

Take `COc1cc2occc2c2oc(=O)ccc12` [ISOBERGAPTENE]: the residual activity was found to be 127.3% in series [1] and 113.9% in series [2].

On to `COC(=O)C1=C(C)NC(C)=C(C(=O)OC)C1c1ccccc1[N+](=O)[O-]` [NIFEDIPINE], for which the residual activity in series [1] was found to be 75.83%; in series [2], 170.6%.

As to `CCOc1ccc2c(c1)C(C)=CC(C)(C)N2` [E324], the residual activity in series [1] is listed as 108.3%; in series [2], 119.7%.

Consider `C[C@H](C(=O)O)[C@H]1CC[C@H]2[C@@H]3CC=C4C[C@@H](O)CC[C@]4(C)[C@H]3CC[C@]12C`, for which the figures for the residual activity in series [1] and in series [2] were 71.16% and 83.58%, respectively.

As to `O=c1c(-c2ccc(O)cc2)coc2cc(O)ccc12` [DAIDZEIN], the results for the residual activity in series [1] and in series [2] were 139.3% and 103.8%, respectively.

As to `Cc1cccc(CN2CCN(C(c3ccccc3)c3ccc(Cl)cc3)CC2)c1.Cl.O` (configuration not stated), the results for the residual activity in series [1] and in series [2] were 80.22% and 79.23%, respectively.

On to `CC[C@H](C)C(=O)O[C@H]1C[C@H](O)C=C2C=C[C@H](C)[C@H](CC[C@@H](O)C[C@@H](O)CC(=O)[O-])[C@H]21.[Na+]` [PRAVASTATIN SODIUM], for which the values for the residual activity in series [1] and in series [2] were 100.3% and 102.8%, respectively.

As for `N=C(NCCC[C@H](N)C(=O)O)N[N+](=O)[O-]` [NITROARGININE], the residual activity in series [1] is given as 113.4%; in series [2], 113.8%.

On to `CC(=O)CC(=O)CCC(=O)O` [SUCCINYLACETONE], for which the residual activity in series [1] amounted to 92.01%; in series [2], 94.95%.

As to `Sc1ncnc2nc[nH]c12` [MERCAPTOPURINE ANHYDROUS], the figures for the residual activity in series [1] and in series [2] were 107.8% and 105.3%, respectively.

Turning to `CC(C)C[C@H](CN)CC(=O)O` [PREGABALIN], the residual activity in series [1] turned out to be 120.6%; in series [2], 101.4%.

In the case of `Cc1cc(O)c(C)c(O)c1C(=O)O` [3-METHYLORSELLINIC ACID], the residual activity came out at 116.2% in series [1] and 114.8% in series [2].

Take `CO[C@H]1/C=C/O[C@@]2(C)Oc3c(C)c(O)c4c(O)c(c(/C=N/N5CCN(C)CC5)c(O)c4c3C2=O)NC(=O)/C(C)=C\C=C\[C@H](C)[C@H](O)[C@@H](C)[C@@H](O)[C@@H](C)[C@H](OC(C)=O)[C@@H]1C` [RIFAMPIN]: the residual activity in series [1] is 33.63%; in series [2], 22.01%.

On to `O=C1C=C2C(=CCOC2O)O1` (configuration not stated) [PATULIN], for which the residual activity in series [1] worked out at 81.5%; in series [2], 79.09%.

`Clc1ccc(C(c2ccccc2Cl)C(Cl)Cl)cc1` (configuration not stated) [MITOTANE]: the results for the residual activity in series [1] and in series [2] were 107.6% and 98.27%, respectively.

In the case of `Cc1ccc(-c2cc(C(F)(F)F)nn2-c2ccc(S(N)(=O)=O)cc2)cc1` [CELECOXIB], the residual activity in series [1] was 108.3%; in series [2] it was 142.8%.

For the compound `CCN(CC)C(=O)N1CCN(C)CC1.O=C(O)CC(O)(CC(=O)O)C(=O)O` [DIETHYLCARBAMAZINE CITRATE], the residual activity in series [1] was 95.54%; in series [2], 81.28%.

As to `COc1ccc2cc(CCC(C)=O)ccc2c1` [NABUMETONE], the residual activity amounted to 203% in series [1] and 110.7% in series [2].

In the case of `C#C[C@]1(O)CC[C@H]2[C@@H]3CCC4=C(CCC(=O)C4)[C@H]3CC[C@@]21C` [NORETHYNODREL], the residual activity in series [1] is 64.52%; in series [2] it was 124.5%.

As for `CO[C@H]1[C@H](O)[C@@H](O)[C@H](O)[C@H](O)[C@H]1O` [QUEBRACHITOL], the residual activity in series [1] is listed as 101.4%; in series [2], 106.9%.

Consider `C#CC1(O)CC[C@H]2[C@@H]3CCC4=CC(=O)CC[C@@H]4[C@H]3CC[C@@]21CC` (some centres not stated) [NORGESTREL], for which the figures for the residual activity in series [1] and in series [2] were 90.26% and 102.9%, respectively.

For `COc1ccc2[nH]cc(CCNC(C)=O)c2c1` [MELATONIN], the residual activity in series [1] is listed as 71.02%; in series [2], 91.63%.

For the compound `CCCCC(=O)N(Cc1ccc(-c2ccccc2-c2nnn[nH]2)cc1)[C@H](C(=O)O)C(C)C`, the values for the residual activity in series [1] and in series [2] were 67.47% and 56.31%, respectively.

As to `CC(=O)N[C@@H](CC(=O)N[C@@H](CCC(=O)O)C(=O)O)C(=O)O` [SPAGLUMIC ACID], the residual activity in series [1] came to 87.3%; in series [2], 87.85%.

`CCCCCCCCCCCCCCCC[n+]1ccccc1.O.[Cl-]`: the values for the residual activity in series [1] and in series [2] were 77.95% and 166.6%, respectively.
